Reference: patent US9951372B2, “Compounds and methods for assaying redox state of metabolically active cells and methods for measuring NAD(P)/NAD(P)H” (PROMEGA CORPORATION, priority 2011, dated 2018)
Read-outs that look alike come from different tables or passages of the source.

Tests used:
Assay type in all cases: biochemical
Clostridium diaphorase = system: Clostridium diaphorase
rat diaphorase [1] = system: rat diaphorase
rat diaphorase [2] = details: 20 μM compound
rat diaphorase [3] = system: rat diaphorase; remark: listed apart in the source
rat diaphorase [4] = details: 20 μM compound, 40 min
rat diaphorase [5] = system: rat diaphorase; remark: listed apart in the source
[6] = 20 μM compound, 10 μM NADH, 0.5 u/ml Clostridium diaphorase, 70 min
[7] = 20 μM compound, no NADH, 0.5 u/ml Clostridium diaphorase, 70 min
[8] = signal with NADH / without NADH, Clostridium diaphorase
[9] = 20 μM compound, 10 μM NADH, 5 u/ml rat diaphorase, 70 min
[10] = 20 μM compound, no NADH, 5 u/ml rat diaphorase, 70 min
[11] = signal with NADH / without NADH, rat diaphorase
[12] = NADH no, diaphorase yes (5 u/ml rat)
[13] = NADH yes (10 μM), diaphorase no
[14] = NADH yes (10 μM), diaphorase yes (5 u/ml rat), 20 min
[15] = reaction time 0 min, 20 μM compound, 10 μM NADH
[16] = ~1 min after LDR with 500 μM menadione, 20 μM compound, 10 μM NADH
[17] = ~1 min after LDR, 20 μM compound, 10 μM NADH
[18] = ~6 min after LDR with 500 μM menadione, 20 μM compound, 10 μM NADH
[19] = ~6 min after LDR, 20 μM compound, 10 μM NADH

For `CC1=C(C)C(=O)C(C(C)(C)CC(=O)N(C)CCN(C)C(=O)Oc2ccc3nc(C4=N[C@@H](C(=O)O)CS4)sc3c2)=C(C)C1=O` [PBI 4312, quinone trimethyllock-C2-diamine luciferin], the “Avg RLU With NADH” value (Clostridium diaphorase; [6]) was 29068 RLU, the “Avg RLU Without NADH” value (Clostridium diaphorase; [7]) was 5311 RLU and the S/B (Clostridium diaphorase; [8]) was 5.5. For the same compound, the “Avg RLU With NADH” value (rat diaphorase [1]; [9]) was 120633 RLU, the “Avg RLU Without NADH” value (rat diaphorase [1]; [10]) was 4981 RLU and the S/B (rat diaphorase [1]; [11]) was 24. For the same compound, the “Avg RLU” value (rat diaphorase [2]; NADH no, diaphorase no) was 4262 RLU, the “Avg RLU” value (rat diaphorase [2]; [12]) was 3910 RLU and the “Avg RLU” value (rat diaphorase [2]; [13]) was 3918 RLU. The “Avg RLU” value (rat diaphorase [2]; [14]) was 197017 RLU, the “Avg RLU” value (rat diaphorase [3]; [15]) was 7809 RLU and the “Avg RLU” value (rat diaphorase [3]; reaction time 2 min) was 150745 RLU. The “Avg RLU” value (rat diaphorase [3]; reaction time 5 min) was 206822 RLU, the “Avg RLU” value (rat diaphorase [3]; reaction time 10 min) was 305968 RLU and the “Avg RLU” value (rat diaphorase [3]; reaction time 15 min) was 366592 RLU. For the same compound, the “Avg RLU” value (rat diaphorase [3]; reaction time 25 min) was 499283 RLU, the “Avg RLU” value (rat diaphorase [3]; reaction time 30 min) was 529063 RLU and the “Avg RLU” value (rat diaphorase [3]; reaction time 40 min) was 544475 RLU. For the same compound, the “Avg RLU” value (rat diaphorase [3]; reaction time 50 min) was 599165 RLU, the “Avg RLU” value (rat diaphorase [3]; reaction time 60 min) was 571954 RLU and the “Avg RLU” value (rat diaphorase [4]; NADH 0 μM) was 5410 RLU. The “Avg RLU” value (rat diaphorase [4]; NADH 0.006 μM) was 6447 RLU, the “Avg RLU” value (rat diaphorase [4]; NADH 0.012 μM) was 7075 RLU and the “Avg RLU” value (rat diaphorase [4]; NADH 0.024 μM) was 8864 RLU. For the same compound, the “Avg RLU” value (rat diaphorase [4]; NADH 0.049 μM) was 11190 RLU, the “Avg RLU” value (rat diaphorase [4]; NADH 0.098 μM) was 20126 RLU and the “Avg RLU” value (rat diaphorase [4]; NADH 0.195 μM) was 27871 RLU. The “Avg RLU” value (rat diaphorase [4]; NADH 0.39 μM) was 43659 RLU, the “Avg RLU” value (rat diaphorase [4]; NADH 0.78 μM) was 33801 RLU and the “Avg RLU” value (rat diaphorase [4]; NADH 1.56 μM) was 60043 RLU. For the same compound, the “Avg RLU” value (rat diaphorase [4]; NADH 3.125 μM) was 119311 RLU, the “Avg RLU” value (rat diaphorase [4]; NADH 6.25 μM) was 235674 RLU and the “Avg RLU” value (rat diaphorase [4]; NADH 12.5 μM) was 465875 RLU. The “Avg RLU” value (rat diaphorase [4]; NADH 25 μM) was 608014 RLU, the “Avg RLU” value (rat diaphorase [4]; NADH 50 μM) was 687602 RLU and the “Avg RLU” value (rat diaphorase [4]; NADH 100 μM) was 663944 RLU. The “First Reading With menadione” value (rat diaphorase [5]; [16]) was 3527 RLU, the “First Reading Without menadione” value (rat diaphorase [5]; [17]) was 5900 RLU and the “Last Reading With menadione” value (rat diaphorase [5]; [18]) was 5062 RLU. The “Last Reading Without menadione” value (rat diaphorase [5]; [19]) was 39855 RLU.
`CC1=C(C)C(=O)C(C(C)(C)CC(=O)N(C)CC(C)(C)CN(C)C(=O)Oc2ccc3nc(C4=N[C@@H](C(=O)O)CS4)sc3c2)=C(C)C1=O` [PBI 4565, Quinone trimethyllock-N,N′,2,2-tetramethylpropanediamine carbamate luciferin] was tested, and the “Avg RLU With NADH” value (Clostridium diaphorase; [6]) was 18559 RLU, the “Avg RLU Without NADH” value (Clostridium diaphorase; [7]) was 646 RLU and the S/B (Clostridium diaphorase; [8]) was 29. The “Avg RLU With NADH” value (rat diaphorase [1]; [9]) was 48903 RLU, the “Avg RLU Without NADH” value (rat diaphorase [1]; [10]) was 479 RLU and the S/B (rat diaphorase [1]; [11]) was 102. For the same compound, the “Avg RLU” value (rat diaphorase [2]; NADH no, diaphorase no) was 801 RLU, the “Avg RLU” value (rat diaphorase [2]; [12]) was 860 RLU and the “Avg RLU” value (rat diaphorase [2]; [13]) was 891 RLU. For the same compound, the “Avg RLU” value (rat diaphorase [2]; [14]) was 98349 RLU, the “Avg RLU” value (rat diaphorase [3]; [15]) was 1294 RLU and the “Avg RLU” value (rat diaphorase [3]; reaction time 2 min) was 41615 RLU. For the same compound, the “Avg RLU” value (rat diaphorase [3]; reaction time 5 min) was 69945 RLU, the “Avg RLU” value (rat diaphorase [3]; reaction time 10 min) was 117067 RLU and the “Avg RLU” value (rat diaphorase [3]; reaction time 15 min) was 154427 RLU. For the same compound, the “Avg RLU” value (rat diaphorase [3]; reaction time 25 min) was 252212 RLU, the “Avg RLU” value (rat diaphorase [3]; reaction time 30 min) was 262123 RLU and the “Avg RLU” value (rat diaphorase [3]; reaction time 40 min) was 278567 RLU. For the same compound, the “Avg RLU” value (rat diaphorase [3]; reaction time 50 min) was 328037 RLU, the “Avg RLU” value (rat diaphorase [3]; reaction time 60 min) was 330433 RLU and the “Avg RLU” value (rat diaphorase [4]; NADH 0 μM) was 967 RLU. The “Avg RLU” value (rat diaphorase [4]; NADH 0.006 μM) was 1120 RLU, the “Avg RLU” value (rat diaphorase [4]; NADH 0.012 μM) was 1412 RLU and the “Avg RLU” value (rat diaphorase [4]; NADH 0.024 μM) was 2300 RLU. For the same compound, the “Avg RLU” value (rat diaphorase [4]; NADH 0.049 μM) was 3065 RLU, the “Avg RLU” value (rat diaphorase [4]; NADH 0.098 μM) was 4931 RLU and the “Avg RLU” value (rat diaphorase [4]; NADH 0.195 μM) was 8863 RLU. The “Avg RLU” value (rat diaphorase [4]; NADH 0.39 μM) was 16200 RLU, the “Avg RLU” value (rat diaphorase [4]; NADH 0.78 μM) was 13828 RLU and the “Avg RLU” value (rat diaphorase [4]; NADH 1.56 μM) was 29258 RLU. For the same compound, the “Avg RLU” value (rat diaphorase [4]; NADH 3.125 μM) was 63621 RLU, the “Avg RLU” value (rat diaphorase [4]; NADH 6.25 μM) was 128719 RLU and the “Avg RLU” value (rat diaphorase [4]; NADH 12.5 μM) was 258360 RLU. For the same compound, the “Avg RLU” value (rat diaphorase [4]; NADH 25 μM) was 294331 RLU, the “Avg RLU” value (rat diaphorase [4]; NADH 50 μM) was 287306 RLU and the “Avg RLU” value (rat diaphorase [4]; NADH 100 μM) was 306242 RLU. For the same compound, the “First Reading With menadione” value (rat diaphorase [5]; [16]) was 324 RLU, the “First Reading Without menadione” value (rat diaphorase [5]; [17]) was 564 RLU and the “Last Reading With menadione” value (rat diaphorase [5]; [18]) was 446 RLU. The “Last Reading Without menadione” value (rat diaphorase [5]; [19]) was 4407 RLU.
In the case of `CC1=C(C)C(=O)C(C(C)(C)CC(=O)N(C)c2ccc(COC(=O)Nc3ccc4nc(C5=N[C@@H](C(=O)O)CS5)sc4c3)cc2)=C(C)C1=O` [PBI 4550, Quinone trimethyllock-N-methyl-luciferin carbamate], the “Avg RLU With NADH” value (Clostridium diaphorase) is reported as 25644 RLU, the “Avg RLU Without NADH” value (Clostridium diaphorase) is reported as 2597 RLU and the S/B (Clostridium diaphorase) is reported as 10. The “Avg RLU With NADH” value (rat diaphorase [1]) was 62987 RLU, the “Avg RLU Without NADH” value (rat diaphorase [1]) was 2337 RLU and the S/B (rat diaphorase [1]) was 27. For the same compound, the “First Reading With menadione” value (rat diaphorase [5]) was 1786 RLU, the “First Reading Without menadione” value (rat diaphorase [5]) was 16495 RLU and the “Last Reading With menadione” value (rat diaphorase [5]) was 2393 RLU. The “Last Reading Without menadione” value (rat diaphorase [5]) was 100603 RLU.
